Reference: patent publication US8436159B2, “Glyphosate resistant class I 5-endolpyruvylshikimate-3-phosphate synthase (EPSPS)” (Monsanto Technology LLC, priority 2003, dated 2013)
Numbering of substitutions follows the chain as printed.

What was measured:
[1] = target: T1, maize (Zea mays) class I EPSPS variant TIPM (T102I, P106M), pMON42484 (Zea mays, UniProt O24566, P106M/T102I); experiment: EPSPS steady-state kinetics, TIPM variant; type: biochemical
T1 construct: pMON42484
T1 sequence (O24566 1-444 T102I/P106M): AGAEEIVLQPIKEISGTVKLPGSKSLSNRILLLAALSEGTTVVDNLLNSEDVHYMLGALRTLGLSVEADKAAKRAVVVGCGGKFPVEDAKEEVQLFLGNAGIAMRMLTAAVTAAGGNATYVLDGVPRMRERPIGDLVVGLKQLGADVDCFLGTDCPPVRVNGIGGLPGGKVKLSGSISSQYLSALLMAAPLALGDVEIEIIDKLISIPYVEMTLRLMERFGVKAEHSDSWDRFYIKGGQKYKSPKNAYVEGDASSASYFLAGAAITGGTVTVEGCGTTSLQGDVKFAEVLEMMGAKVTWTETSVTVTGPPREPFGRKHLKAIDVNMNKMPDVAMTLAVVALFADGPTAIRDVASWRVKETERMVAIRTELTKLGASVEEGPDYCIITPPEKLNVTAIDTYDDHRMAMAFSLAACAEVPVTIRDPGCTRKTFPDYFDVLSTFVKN
Source text: (§1) The double variants of the present invention were made using pMON58452 (FIG. 5) as the template. This pMON58452 EPSPS gene template contains the maize EPSPS double variant T102I, P106T (TIPT) that was constructed by mutagenesis of pMON70467 with the mutagenesis primers mEmut-9-U and mEmut-10-L. The various mutagenesis primer sequences were designed and then were synthesized by Invitrogen Corp., Custom Primers and used in combination in a PCR to create the variant EPSPS coding sequences. The PCR was set up in a 50 μl reaction in the following manner: dH2O 38 μl; 2 mM dNTP 1 μL; 10× buffer 5 μL; pMON58452 1 μL (10 ng); primer-U 2 μL; primer-L 2 μL; pfu Turbo enzyme 1 μL. PCR was carried out on a MJ Research PTC-200 thermal cycler using the following program: Step 1—94° C. for 30 seconds; Step 2—94° C. for 30 seconds; Step 3—55° C. for 1 minute; Step 4—68° C. for 14 minute; Step 5—go to step 2, 16 times; Step 6—End. At the end of the PCR, 1 μl of the restriction enzyme DpnI was added to each 50 μl of PCR reaction and the mixture was incubated at 37° C. for 1 hour. […]

[2] = target: T2, maize (Zea mays) class I EPSPS variant TIPG (T102I, P106G), pMON42480 (Zea mays, UniProt O24566, P106G/T102I); experiment: EPSPS steady-state kinetics, TIPG variant; type: biochemical
T2 construct: pMON42480
T2 sequence (O24566 1-444 T102I/P106G): T1 sequence (O24566 1-444 T102I/P106M) with M106G
Source text: as §1

[3] = system: E. coli EPSPS variant, alanine for the glycine at position 96 (G96A); settings: glyphosate-resistant isolate; read-out: apparent Ki for glyphosate; cited from earlier work

Question: With `O=C(O)CNCP(=O)(O)O` [glyphosate, N-phosphonomethylglycine] as the compound, how does the Ki [1] read?
Answer: The Ki was 37.2 ± 1.5 mM.

Question: And the Ki [2]?
Answer: The Ki was 0.0386 mM.

Question: What about the Ki [3] of the same compound?
Answer: The Ki was 4 mM.
